Data on 3 compounds can be found in ChEMBL document CHEMBL5625215, “Antiproliferative activity of meso-substituted BODIPY photocages: Effect of electrophiles vs singlet oxygen” (Eur J Med Chem, 2023).

Molecules are shown by their SMILES. Activity calls are given as the source filed them. The rule behind the calls is not given here.

In data set [1] the test system is MCF7. The data set can be described thus: Antiproliferative activity against human MCF7 cells assessed as inhibition of cell growth incubated for 72 hrs under photoirradiation with 6 cool white lamps for 15 mins at 4,28 and 52 hrs after compound addition by MTT assay. It is filed as functional, cell-based. The note with it: MCF7, light or radiation study.
For data set [2], the system named is NCI-H460. Nature of the data set: Induction of cell death in human NCI-H460 cells assessed as cell shrinkage preincubated for 30 mins followed by light irradiation for 15 to 30 mins by Hoechst 33342 staining based confocal microscopic analysis. The data set is classed as functional. Conditions: time 45-60 min.
The subject of data set [3] is HEK-293T. Nature of the data set: Induction of apoptosis in HEK293T cells assessed as cell death irradiated with visible light by Hoechst 33342 staining based confocal microscopic analysis. The data set is classed as toxicity. Conditions: human.
Data set [4] relates to HCT-116. The data set can be described thus: Antiproliferative activity against human HCT-116 cells assessed as inhibition of cell growth incubated for 72 hrs under photoirradiation with 6 cool white lamps for 15 mins at 4,28 and 52 hrs after compound addition by MTT assay. It is filed as functional, cell-based. Conditions: HCT-116, light or radiation study. Background: Formazan colour is commonly taken as a measure of viable cells.

Data set [5] has as its system MCF7. The data set can be described thus: Antiproliferative activity against human MCF7 cells assessed as inhibition of cell growth incubated for 72 hrs under dark condition by MTT assay. The data set is classed as functional, cell-based. Conditions: MCF7, 72 h.
The subject of data set [6] is NCI-H460. The data set can be described thus: Induction of cell death in human NCI-H460 cells assessed as membrane blebbing preincubated for 30 mins followed by light irradiation for 15 to 30 mins by Hoechst 33342 staining based confocal microscopic analysis. It is filed as functional. Conditions: time 45-60 min.
Data set [7] in a line: Drug localization in lipid droplets of human NCI-H460 cells incubated for 30 mins by Hoechst 33342 staining based confocal microscopic analysis. It is filed as ADME, subcellular, Lipid droplet. The note with it: nci-h460, 0.5 h.
Data set [8] has as its system NCI-H460. Nature of the data set: Induction of cell death in human NCI-H460 cells assessed as shrinkage of nuclear volume preincubated for 30 mins followed by light irradiation for 15 to 30 mins by Hoechst 33342 staining based confocal microscopic analysis. The data set is classed as functional. Conditions: time 45-60 min.
Data set [9] can be described thus: Absorption property of compound in CH3CN assessed as maximal wavelength by UV-vis spectrophotometer. It is filed as physicochemical.
Data set [10] can be described thus: Absorption property of compound in CH3CN assessed as maximal molar absorption coefficient by UV-vis spectrophotometer. It is filed as physicochemical.
Data set [11] in a line: Drug localization in endoplasmic reticulum of human NCI-H460 cells incubated for 30 mins by Hoechst 33342 staining based confocal microscopic analysis. The data set is classed as ADME, subcellular. Conditions: nci-h460, 0.5 h.
Data set [12] deals with HEK-293T. The data set can be described thus: Induction of apoptosis in HEK293T cells assessed as dye bleaching irradiated with visible light by Hoechst 33342 staining based confocal microscopic analysis. The data set is classed as toxicity, cell-based. The note with it: human.
A short description of data set [13]: Drug localization in nuclear membrane of human NCI-H460 cells incubated for 30 mins by Hoechst 33342 staining based confocal microscopic analysis. It is filed as ADME, cell membranes. The note with it: nci-h460, 0.5 h.
Data set [14] is described as follows: Drug localization in golgi body of human NCI-H460 cells incubated for 30 mins by Hoechst 33342 staining based confocal microscopic analysis. The data set is classed as ADME, subcellular. Conditions: nci-h460, 0.5 h.
Data set [15] has as its system NCI-H460. Nature of the data set: Induction of cell death in human NCI-H460 cells assessed as dye bleaching preincubated for 30 mins followed by light irradiation for 15 to 30 mins by Hoechst 33342 staining based confocal microscopic analysis. It is filed as functional. Conditions: time 45-60 min.
Data set [16] can be described thus: Drug uptake in HEK293T cells by fluorescence microscopic analysis. It is filed as ADME, cell-based. The note with it: human, hek-293t.
Data set [17] can be described thus: Fluorescence property of compound in CH3CN assessed as fluorescence quantum yield by spectrofluorometric analysis. The data set is classed as physicochemical.
Data set [18] relates to NCI-H460. Nature of the data set: Antiproliferative activity against human NCI-H460 cells assessed as inhibition of cell growth incubated for 72 hrs under photoirradiation with 6 cool white lamps for 15 mins at 4,28 and 52 hrs after compound addition by MTT assay. Conditions: NCI-H460, light or radiation study. It is filed as functional, cell-based.
A short description of data set [19]: Drug localization in cytoplasm of human NCI-H460 cells incubated for 30 mins by Hoechst 33342 staining based confocal microscopic analysis. The note with it: nci-h460, 0.5 h. It is filed as ADME, subcellular.
Data set [20] is described as follows: Emission property of compound in CH3CN assessed as maximal wavelength by […]. It is filed as physicochemical.
Data set [21] concerns NCI-H460. The data set can be described thus: Antiproliferative activity against human NCI-H460 cells assessed as inhibition of cell growth incubated for 72 hrs under dark condition by MTT assay. The data set is classed as functional, cell-based. The note with it: NCI-H460, 72 h.
For data set [22], the system named is HCT-116. Nature of the data set: Antiproliferative activity against human HCT-116 cells assessed as inhibition of cell growth incubated for 72 hrs under dark condition by MTT assay. The data set is classed as functional, cell-based. Conditions: HCT-116, 72 h.
A short description of data set [23]: Cytotoxicity against HEK293T cells assessed as inhibition of cell growth incubated for 72 hrs under dark condition by MTT assay. Conditions: human. It is filed as toxicity, cell-based, HEK-293T.
Data set [24] in a line: Induction of singlet oxygen production in CH3CN assessed as singlet oxygen quantum yield at 450 nm under photoirradiation with visible light and measured after 15 to 60 sec by DPBF based assay. Conditions: time 15-60 sec. It is filed as functional.
Data set [25] deals with HCT-116. The data set can be described thus: Induction of ROS generation in human HCT-116 cells assessed as increase in oxidative stress at 5 uM preincubated with compound for 1 hrs followed by photoirradiation with 6 cool white lamps by DCFH-DA staining based fluorescence analysis. It is filed as functional, cell-based.
Data set [26] is described as follows: Cytotoxicity against human HaCaT cells assessed as inhibition of cell growth incubated for 72 hrs under dark condition by MTT assay. The data set is classed as toxicity, cell-based.
A short description of data set [27]: Induction of singlet oxygen production in CH3CN assessed as decrease in fluorescence intensity at 450 nm under photoirradiation with visible light and measured after 30 sec by DPBF based assay relative to control. The data set is classed as functional. Set-up: scale not given: the % may be the effect or the level left.
A short description of data set [28]: Cytotoxicity against human HaCaT cells assessed as inhibition of cell growth incubated for 72 hrs under photoirradiation with 6 cool white lamps for 15 mins at 4,28 and 52 hrs after compound addition by MTT assay. It is filed as toxicity, cell-based.
The nature of data set [29]: Induction of singlet oxygen production in CH3CN assessed as decrease in fluorescence intensity at 450 nm under photoirradiation with visible light and measured after 1 min by DPBF based assay relative to control. Set-up: scale not given: the % may be the effect or the level left. The data set is classed as functional.
The nature of data set [30]: Cytotoxicity against HEK293T cells assessed as inhibition of cell growth incubated for 72 hrs under photoirradiation with 6 cool white lamps for 15 mins at 4,28 and 52 hrs after compound addition by MTT assay. The data set is classed as toxicity, cell-based, HEK-293T. Conditions: human.
The nature of data set [31]: Induction of singlet oxygen production in CH3CN assessed as decrease in fluorescence intensity at 450 nm under photoirradiation with visible light and measured after 45 sec by DPBF based assay relative to control. Set-up: scale not given: the % may be the effect or the level left. It is filed as functional.
Data set [32] relates to HCT-116. The data set can be described thus: Induction of ROS generation in human HCT-116 cells at 5 uM incubated for 1 hrs under dark condition by DCFH-DA staining based fluorescence analysis. It is filed as functional, cell-based.
Data set [33] can be described thus: Induction of singlet oxygen production in CH3CN assessed as decrease in fluorescence intensity at 450 nm under photoirradiation with visible light and measured after 15 sec by DPBF based assay relative to control. It is filed as functional. On the set-up: scale not given: the % may be the effect or the level left.

By IC50 is commonly meant the concentration at which inhibition is half-maximal.

Take `CC(=O)OCc1ccccc1OCC1=C2C(C)=C(Br)C(C)=[N+]2[B-](C)(C)n2c(C)c(Br)c(C)c21`: the concentration for half-maximal inhibition (IC50) stood at 170 nM with MCF7 [1]; 160 nM with HCT-116 [4]; 18000 nM in the data set on MCF7 [5]; 190 nM in the data set with NCI-H460 [18]; 33000 nM with NCI-H460 [21]; 25000 nM in the data set on HCT-116 [22]. Further, the outcome in the data set on NCI-H460 [2], with NCI-H460 [6], in the data set on NCI-H460 [8] and in the data set with NCI-H460 [15] was Active. Further, the Activity entry was “Toxic” with HEK-293T [3]; 531 nm in [9]; 37724 M⁻¹ cm⁻¹ in data set [10]; “Toxic” in the data set with HEK-293T [12]; 0.043 in data set [17]; 558 nm in data set [20]. Also, the Drug uptake entry in data set [7], in data set [11], in [13], in [14], in [16] and in data set [19] was “Active” each time.
Take `COc1cccc(COC(C)=O)c1OCC1=C2C(C)=CC(C)=[N+]2[B-](C)(C)n2c(C)cc(C)c21`: the IC50 was 200 nM with MCF7 [1]; 340 nM in the data set with HCT-116 [4]; 47000 nM in the data set on MCF7 [5]; 260 nM in the data set on NCI-H460 [18]; at least 100000 nM in the data set on NCI-H460 [21]; at least 100000 nM in the data set on HCT-116 [22]. Besides, the Activity in [9] was found to be 510 nm; in data set [10], 75178 M⁻¹ cm⁻¹; in data set [24], 0.1; in data set [27] it was 6.9%; in data set [17], 0.27; in data set [29], 20.2%. Further, the Activity in [20] worked out at 522 nm; in data set [31] it was 14.9%; in data set [33], 1%. Further, the 50% inhibitory concentration (IC50) at 72 h in data set [23] was at least 100000 nM; in data set [26] it was over 100000 nM; in data set [28], 600 nM; in [30] it was 1300 nM. Moreover, the outcome with HCT-116 [25] was Active. Besides, the result with HCT-116 [32] was inactive.
On to `CC(=O)OCc1ccccc1OCC1=C2C(C)=CC(C)=[N+]2[B-](C)(C)n2c(C)cc(C)c21`, for which the IC50 in the data set on MCF7 [1] stood at 200 nM; with HCT-116 [4], 210 nM; in the data set with MCF7 [5], 27000 nM; in the data set on NCI-H460 [18], 190 nM; with NCI-H460 [21], 83000 nM; in the data set on HCT-116 [22], 33000 nM. Further, the Activity in data set [9] was found to be 510 nm; in data set [10] it was 146706 M⁻¹ cm⁻¹; in [24], 0.1; in data set [27], 12.9%; in data set [17] it was 0.28; in [29], 32.3%. In addition, the Activity was 521 nm in data set [20], 21.1% in [31] and 4.9% in data set [33]. Moreover, the outcome in the data set with HCT-116 [25] was Active. For the same compound, in the data set with HCT-116 [32], the result was inactive.
